“Also recorded” adds a separate entry of the source. Where two headings read alike, the source gives them in different places.
Legend:
CT26 colon carcinomas = experiment: CT26 colon carcinoma model, daily i.p. treatment, tumor volume; format: in vivo, BALB/c mice; settings: CT26 in BALB/c mice; 5 mg/kg, i.p. daily from tumor size around 50 mm^3 until sacrifice
Description: Mice received a daily intra-peritoneal injection of guanabenz (5 mg/kg) or vehicle (PBS) from the day of randomization (and the day of ACT when applicable) until the day of sacrifice. For the co-administration of adrenergic receptor agonist and antagonist, BALB/c mice bearing CT26 colon carcinomas received daily injections of vehicle control, guanabenz (5 mg/kg, i.p.), or guanabenz (5 mg/kg, i.p.) plus yohimbine (10 mg/kg, i.p.), when the tumor size was around 50 mm^3, until the day of sacrifice.
[…] mice were injected subcutaneously with 2×10^6 CT26 colon tumor cells at an age of 6 to 8 weeks. […] For evaluation of yohimbine on the effect of clonidine and guanabenz, the mice were randomized into different groups when tumors size arrived around 100 mm^3 and received daily injections of guanabenz (5 mg/kg, i.p.), yohimbine (10 mg/kg), a mix of guanabenz (5 mg/kg, i.p.) and yohimbine (10 mg/kg, i.p.), clonidine (5 mg/kg, i.p.), a mix of clonidine (5 mg/kg, i.p.) and yohimbine (10 mg/kg, i.p.) or vehicle control. Tumor size was measured every 2 days and mice were sacrificed when the tumor in control group reached 1,000 mm^3.

B16F1 melanoma [1] = experiment: B16F1 melanoma in immune competent mice; format: in vivo; settings: B16F1 in immune competent C57BL/6 mice; 5 mg/kg, i.p.; monotherapy
Description: (§1) FIGS. 10A-B is a set of curves showing the tumor growth of B16F1 melanoma in C57BL/6J (FIG. 10A) or immunodeficient NSG mice (FIG. 10B) treated with PBS (Control, curve 1) or clonidine (5 mg/kg, i.p., curve 2).
(§2) FIGS. 11A-B is a set of curves showing the tumor growth of B16F1 melanoma in C57BL/6J (FIG. 11A) or NSG mice (FIG. 11B) treated with PBS (Control, curve 1) or guanfacine (5 mg/kg, i.p., curve 2).

B16F1 melanoma [2] = experiment: B16F1 melanoma in immune deficient mice; format: in vivo; settings: B16F1 in immune deficient NSG mice; 5 mg/kg, i.p.
Description: as §1, §2

[3] = tested on: JAK2V617F mutated bone marrow; experiment: Myelofibrosis by JAK2V617F bone marrow transplantation, platelet counts; format: in vivo, mice; settings: 5 mg/kg daily for three weeks
Description: Murine femurs and tibias from JAK2V617F mutant mice were first harvested and cleaned thoroughly. Marrow cells were flushed into PBS with 2% fetal bovine serum using a 25G needle and syringe. Resulting cell suspensions were then filtered through a 40 uM cell strainer. Recipient mice were irradiated with two doses of 500 rad 4 h apart. 1 million of donor cells were injected into wild-type recipients by standard intravenous injection using a 27G insulin syringe. One week after bone marrow transplantation, mice were treated with guanabenz or clonidine at a dose of 5 mg/kg daily for three weeks. After three weeks of treatment, mice were dissected and peripheral blood was drawn by cardiac puncture, the platelet concentration was measured by Cell Counter Analyzer MS9-5V.

[4] = tested on: myelofibrosis induced by romiplostim; settings: romiplostim 1 mg/kg s.c. days 1, 8, 15, 5 mg/kg i.p. daily for two weeks from day 8, wildtype mice
Description: 8-week female C57BL/6 J wild-type and Adra2a KO mice were administered saline or 1 mg/kg of romiplostim by a subcutaneous injection into the neck skin on days 1, 8 and 15. Clonidine or guanabenz were administrated i.p. at a dose of 5 mg/kg daily for two weeks starting from day 8. Mice were dissected on day 22 and peripheral blood was drawn by cardiac puncture, the platelet concentration was measured by Cell Counter Analyzer MS9-5V.

[5] = tested on: human LS411N ovarian cancer; experiment: LS411N xenograft with adoptive transfer of allogeneic human PBMC; format: in vivo; settings: human allogenic PBMC transferred at tumor size 100 mm^3
Description: Adoptive transfer of human PBMC was performed when tumor size reaches 100 mm^3.

MC38 colon carcinomas [6] = experiment: MC38 colon carcinoma in wildtype mice; format: in vivo, C57BL/6 Wildtype mice; settings: 5 mg/kg, i.p. daily from tumor size around 50 mm^3
Description: (§3) C57BL/6 Wildtype or C57BL/6 Adra2a KO mice bearing MC38 colon carcinomas received daily injections of vehicle control (PBS), clonidine (5 mg/kg, i.p.) or guanabenz (5 mg/kg, i.p.), when the tumor size was around 50 mm^3, until the day of sacrifice.

MC38 colon carcinomas [7] = experiment: MC38 colon carcinoma in Adra2a KO mice; format: in vivo, C57BL/6 Adra2a KO mice; settings: 5 mg/kg, i.p. daily from tumor size around 50 mm^3
Description: as §3

mammary gland tumor = experiment: Tumor model: mammary gland tumor; format: in vivo, mice; settings: mammary gland tumor (FIG. 22A, 23A)
Description: (§4) FIGS. 23A-H is a set of curves showing the tumor growth of mice treated with PBS (Control, circles) or guanabenz (GBZ, triangles) in different tumor models: such as mammary gland tumor (FIG. 23A), hepatocellular carcinoma (FIG. 23B), T cell lymphoma (FIG. 23C), lung cancer (FIG. 23D), myeloma (FIG. 23E), mammary adenocarcinoma (FIG. 23F), renal cancer (FIG. 23G) and fibrosarcoma (FIG. 23H).

hepatocellular carcinoma = experiment: Tumor model: hepatocellular carcinoma; format: in vivo, mice; settings: hepatocellular carcinoma (FIG. 22B, 23B)
Description: as §4

myeloma = experiment: Tumor model: myeloma; format: in vivo, mice; settings: myeloma (FIG. 22E, 23E)
Description: as §4

prostate cancer = experiment: Xenograft model of prostate cancer in NSG mice treated with PBMC; format: in vivo

Compound: Clc1cccc(Cl)c1N=C1NCCN1 [clonidine]
- tumor growth (tumor volume) (CT26 colon carcinomas): promotes a decrease of the tumor volume; also recorded: strongly inhibited CT26 tumor growth
- tumor growth (B16F1 melanoma [1]): inhibited tumor growth
- tumor growth (B16F1 melanoma [2]): No tumor inhibition was found
- platelet (PLT) counts [3]: significantly reduces the platelet (PLT) counts; also recorded: significantly reduced the high platelet counts
- platelet (PLT) counts [4]: significantly reduces the platelet (PLT) counts
- platelet (PLT) counts ([4]; listed as Clonidine): reduces the platelet count
- tumor growth [5]: significant tumor inhibition
- tumor growth (MC38 colon carcinomas [6]): significant tumor inhibition
- tumor inhibition in Adra2a KO mice (MC38 colon carcinomas [7]): almost completely attenuated
- tumor growth (mammary gland tumor): strong tumor inhibition
- tumor growth (hepatocellular carcinoma): strong tumor inhibition
- tumor growth (myeloma): strong tumor inhibition
- tumor growth (prostate cancer): strong tumor inhibition
